Values belong to the compound of their own block, whether it stands above or below them. Calls of active or inactive are those of the source. The rule behind the calls is not given here.
How the values were obtained:
[1] = system: K562; experiment: Antiproliferative activity against human K562 cells incubated for 72 hrs by PrestoBlue assay; settings: K562, 72 h
[2] = system: U-87 MG; experiment: Antiproliferative activity against human U-87 MG cells incubated for 72 hrs by MTT assay
[3] = system: HT-1080; experiment: Antiproliferative activity against human HT-1080 cells incubated for 72 hrs by MTT assay; settings: HT-1080, 72 h
[4] = Cytotoxicity against HEK293 cells incubated for 72 hrs by MTT assay; type: toxicity, cell-based; settings: human
[5] = molecular target: Neutrophil collagenase (Homo sapiens, UniProt P22894); experiment: Inhibition of MMP-8 (unknown origin)
Chain of Neutrophil collagenase (P22894 whole entry): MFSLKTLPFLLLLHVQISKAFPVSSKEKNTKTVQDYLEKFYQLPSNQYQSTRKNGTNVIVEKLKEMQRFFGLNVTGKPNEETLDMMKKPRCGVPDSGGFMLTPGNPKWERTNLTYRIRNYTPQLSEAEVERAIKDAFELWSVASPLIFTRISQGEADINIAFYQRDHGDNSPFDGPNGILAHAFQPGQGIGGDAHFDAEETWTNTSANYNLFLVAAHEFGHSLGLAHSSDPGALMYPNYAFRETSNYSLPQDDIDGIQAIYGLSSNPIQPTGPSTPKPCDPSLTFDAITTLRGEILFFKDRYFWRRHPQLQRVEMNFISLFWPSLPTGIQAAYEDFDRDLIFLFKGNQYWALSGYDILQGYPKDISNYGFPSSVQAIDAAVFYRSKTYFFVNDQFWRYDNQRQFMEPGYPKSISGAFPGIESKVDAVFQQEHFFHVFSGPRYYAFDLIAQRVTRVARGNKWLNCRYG

[6] = system: A549; experiment: cells; settings: Homo sapiens, A549, 72 h
Description: Antiproliferative activity against human A549 cells incubated for 72 hrs by MTT assay

[7] = system: ACHN; experiment: Antiproliferative activity against human ACHN cells incubated for 72 hrs by MTT assay
[8] = molecular target: 72 kDa type IV collagenase (Homo sapiens, UniProt P08253); experiment: Inhibition of MMP-2 (unknown origin) using chromogenic substrate incubated for 1 hr by microplate photometer analysis
Chain of 72 kDa type IV collagenase (P08253 whole entry): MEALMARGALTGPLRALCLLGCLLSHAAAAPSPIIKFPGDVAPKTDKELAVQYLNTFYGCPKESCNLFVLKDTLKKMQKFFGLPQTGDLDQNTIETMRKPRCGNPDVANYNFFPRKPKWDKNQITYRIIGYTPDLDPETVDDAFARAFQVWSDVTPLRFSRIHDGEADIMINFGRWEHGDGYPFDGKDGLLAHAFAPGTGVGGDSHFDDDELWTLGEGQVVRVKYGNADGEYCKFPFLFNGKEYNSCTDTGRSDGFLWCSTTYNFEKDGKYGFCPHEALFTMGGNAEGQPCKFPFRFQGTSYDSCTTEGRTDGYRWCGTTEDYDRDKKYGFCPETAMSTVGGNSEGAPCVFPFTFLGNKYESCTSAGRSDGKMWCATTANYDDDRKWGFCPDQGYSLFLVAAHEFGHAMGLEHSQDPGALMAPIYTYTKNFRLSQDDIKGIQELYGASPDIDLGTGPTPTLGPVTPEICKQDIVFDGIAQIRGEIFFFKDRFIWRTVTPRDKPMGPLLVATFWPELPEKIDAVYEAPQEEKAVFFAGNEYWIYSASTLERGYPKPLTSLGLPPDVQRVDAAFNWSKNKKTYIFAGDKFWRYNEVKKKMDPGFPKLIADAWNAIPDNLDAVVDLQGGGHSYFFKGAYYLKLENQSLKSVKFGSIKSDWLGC

[9] = molecular target: Matrix metalloproteinase-9 (Homo sapiens, UniProt P14780); experiment: Inhibition of MMP-9 (unknown origin) using chromogenic substrate incubated for 1 hr by microplate photometer analysis
Chain of Matrix metalloproteinase-9 (P14780 whole entry): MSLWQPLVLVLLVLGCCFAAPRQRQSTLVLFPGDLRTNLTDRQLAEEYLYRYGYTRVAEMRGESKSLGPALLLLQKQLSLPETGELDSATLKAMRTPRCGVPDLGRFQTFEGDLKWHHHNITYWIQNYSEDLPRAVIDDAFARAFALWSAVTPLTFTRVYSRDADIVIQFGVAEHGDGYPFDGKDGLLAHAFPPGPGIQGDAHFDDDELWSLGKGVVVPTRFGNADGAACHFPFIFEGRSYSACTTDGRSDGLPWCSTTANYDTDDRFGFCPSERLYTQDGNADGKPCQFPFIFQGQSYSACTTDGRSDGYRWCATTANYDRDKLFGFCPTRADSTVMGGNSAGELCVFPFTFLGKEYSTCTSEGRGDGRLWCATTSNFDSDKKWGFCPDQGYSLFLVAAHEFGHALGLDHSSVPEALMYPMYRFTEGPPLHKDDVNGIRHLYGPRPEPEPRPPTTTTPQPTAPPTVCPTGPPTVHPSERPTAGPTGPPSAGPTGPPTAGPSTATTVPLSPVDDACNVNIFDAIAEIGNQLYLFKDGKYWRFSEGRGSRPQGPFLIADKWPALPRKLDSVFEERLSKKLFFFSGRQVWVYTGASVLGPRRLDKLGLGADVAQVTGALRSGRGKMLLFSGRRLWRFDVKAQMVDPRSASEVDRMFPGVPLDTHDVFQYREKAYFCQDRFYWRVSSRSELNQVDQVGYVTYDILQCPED

[10] = molecular target: Macrophage metalloelastase (Homo sapiens, UniProt P39900); experiment: Inhibition of MMP-12 (unknown origin)
Chain of Macrophage metalloelastase (P39900 whole entry): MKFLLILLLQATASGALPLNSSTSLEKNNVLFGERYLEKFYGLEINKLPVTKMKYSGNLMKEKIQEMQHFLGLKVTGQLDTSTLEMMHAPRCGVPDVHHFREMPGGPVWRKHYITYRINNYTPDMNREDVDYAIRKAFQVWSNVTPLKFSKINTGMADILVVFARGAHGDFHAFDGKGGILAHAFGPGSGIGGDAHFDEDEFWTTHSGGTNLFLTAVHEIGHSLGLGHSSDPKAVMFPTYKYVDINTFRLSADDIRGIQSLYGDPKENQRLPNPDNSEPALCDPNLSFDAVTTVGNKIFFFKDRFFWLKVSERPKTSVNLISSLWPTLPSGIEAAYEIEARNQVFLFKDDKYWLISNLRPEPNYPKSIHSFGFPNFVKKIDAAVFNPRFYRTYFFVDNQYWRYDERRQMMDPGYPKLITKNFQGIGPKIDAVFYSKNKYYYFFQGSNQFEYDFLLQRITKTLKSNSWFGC

[11] = system: K562; experiment: Induction of cell cycle arrest in human K562 cells assessed as cell population at G1 phase at 4.919 uM incubated for 72 hrs by propidium iodide staining based flow cytometry analysis (reference value: 44.4 +/- 1.5%); type: functional
[12] = system: K562; experiment: Induction of cell cycle arrest in human K562 cells assessed as cell population at S phase at 4.919 uM incubated for 72 hrs by propidium iodide staining based flow cytometry analysis (reference value: 32.7 +/- 3.1%); type: functional
[13] = system: K562; experiment: Induction of cell cycle arrest in human K562 cells assessed as cell population at G2/M phase at 4.919 uM incubated for 72 hrs by propidium iodide staining based flow cytometry analysis (reference value: 22.9 +/- 1.9%); type: functional
[14] = system: K562; experiment: Induction of cell cycle arrest in human K562 cells assessed as cell population at sub-G1 phase at 4.919 uM incubated for 72 hrs by propidium iodide staining based flow cytometry analysis; type: functional
[15] = system: K562; experiment: Induction of apoptosis in human K562 cells assessed as total apoptotic cells at 4.919 uM incubated for 72 hrs by Annexin-V/PI staining based flow cytometry analysis (reference value: 2.6 +/- 1.1%); type: functional
[16] = system: ACHN; experiment: Antiangiogenic activity in human ACHN cells assessed as reduction in mesh length at 26.764 uM incubated for 72 hrs by microscopic analysis; type: functional, cell-based
[17] = system: ACHN; experiment: Antiangiogenic activity in human ACHN cells assessed as reduction in branch length at 26.764 uM incubated for 72 hrs by microscopic analysis; type: functional, cell-based
[18] = system: ACHN; experiment: Antiangiogenic activity in human ACHN cells assessed as reduction in total segment length at 26.764 uM incubated for 72 hrs by microscopic analysis; type: functional, cell-based
[19] = system: ACHN; experiment: Antiangiogenic activity in human ACHN cells assessed as reduction in total tube length at 26.764 uM incubated for 72 hrs by microscopic analysis; type: functional, cell-based
[20] = Downregulation of MMP-2 expression in human K562 cells at 4.919 uM incubated for 48 hrs by flow cytometry analysis; type: functional
[21] = system: K562; experiment: Antiproliferative activity against human K562 cells; type: functional, cell-based
[22] = system: K562; experiment: Induction of cell cycle arrest in human K562 cells assessed as cell population at G1 phase at 1.992 uM incubated for 72 hrs by propidium iodide staining based flow cytometry analysis (reference value: 44.4 +/- 1.5%); type: functional
[23] = system: K562; experiment: Induction of cell cycle arrest in human K562 cells assessed as cell population at S phase at 1.992 uM incubated for 72 hrs by propidium iodide staining based flow cytometry analysis (reference value: 32.7 +/- 3.1%); type: functional
[24] = system: K562; experiment: Induction of cell cycle arrest in human K562 cells assessed as cell population at G2/M phase at 1.992 uM incubated for 72 hrs by propidium iodide staining based flow cytometry analysis (reference value: 22.9 +/- 1.9%); type: functional
[25] = system: K562; experiment: Induction of cell cycle arrest in human K562 cells assessed as cell population at sub-G1 phase at 1.992 uM incubated for 72 hrs by propidium iodide staining based flow cytometry analysis; type: functional
[26] = system: K562; experiment: Induction of apoptosis in human K562 cells assessed as total apoptotic cells at 1.992 uM incubated for 72 hrs by Annexin-V/PI staining based flow cytometry analysis (reference value: 2.6 +/- 1.1%); type: functional
[27] = system: K562; experiment: Induction of apoptosis in human K562 cells at 1.992 uM by AO/EB staining based fluorescence microscopic analysis; type: functional, cell-based; settings: time 24-72 hrs, TDE = time-dependent effect
[28] = system: K562; experiment: Induction of apoptosis in human K562 cells assessed as appearance of apoptotic cells at 1.992 uM after 24 to 72 hrs by AO/EB staining based fluorescence microscopic analysis; type: functional, cell-based; settings: time 24-72 hrs
[29] = system: K562; experiment: Induction of apoptosis in human K562 cells assessed as increase in early apoptotic cells at 1.992 uM after 24 hrs by AO/EB staining based fluorescence microscopic analysis; type: functional, cell-based
[30] = system: K562; experiment: Induction of apoptosis in human K562 cells assessed as increase in late apoptotic cells at 1.992 uM after 48 hrs by AO/EB staining based fluorescence microscopic analysis; type: functional, cell-based
[31] = system: K562; experiment: Induction of apoptosis in human K562 cells assessed as increase in late apoptotic dead cells at 1.992 uM after 72 hrs by AO/EB staining based fluorescence microscopic analysis; type: functional, cell-based
[32] = system: K562; experiment: Induction of apoptosis in human K562 cells assessed as increase in necrotic cells at 1.992 uM after 72 hrs by AO/EB staining based fluorescence microscopic analysis; type: functional, cell-based
[33] = system: K562; experiment: Induction of apoptosis in human K562 cells assessed as appearance of nucleus with fragmented DNA at 1.992 uM after 72 hrs by AO/EB staining based fluorescence microscopic analysis; type: functional, cell-based
[34] = system: K562; experiment: Induction of apoptosis in human K562 cells assessed as morphological changes at 1.992 uM after 72 hrs by AO/EB staining based fluorescence microscopic analysis; type: functional, cell-based
[35] = system: ACHN; experiment: Antiangiogenic activity in human ACHN cells assessed as reduction in mesh length at 17.157 uM incubated for 72 hrs by microscopic analysis; type: functional, cell-based
[36] = system: ACHN; experiment: Antiangiogenic activity in human ACHN cells assessed as reduction in branch length at 17.157 uM incubated for 72 hrs by microscopic analysis; type: functional, cell-based
[37] = system: ACHN; experiment: Antiangiogenic activity in human ACHN cells assessed as reduction in total segment length at 17.157 uM incubated for 72 hrs by microscopic analysis; type: functional, cell-based
[38] = system: ACHN; experiment: Antiangiogenic activity in human ACHN cells assessed as reduction in total tube length at 17.157 uM incubated for 72 hrs by microscopic analysis; type: functional, cell-based
[39] = Downregulation of MMP-2 expression in human K562 cells at 1.992 uM incubated for 48 hrs by flow cytometry analysis; type: functional

IC50 [1]: 2.35 µM
IC50 [2]: 26.3 µM
IC50 [3]: 39.2 µM
IC50 [5]: > 2 µM
IC50 [6]: 32.2 µM
SMILES: Cc1ccc(S(=O)(=O)N[C@H](CCC(=O)NCC(C)C)C(=O)O)cc1
IC50 at 72 h [4]: 645 µM

IC50 [1]: 4.77 µM
IC50 [6]: 13.5 µM
SMILES: COc1ccc(S(=O)(=O)N(CC(=O)NO)CC(C)C)cc1

IC50 [1]: 8.06 µM
IC50 [2]: 38.5 µM
IC50 [3]: 16.2 µM
IC50 [6]: 10.8 µM
SMILES: CC(C)CNC(=O)CC[C@@H](NS(=O)(=O)c1ccc([N+](=O)[O-])cc1)C(=O)O
IC50 at 72 h [4]: 217 µM

IC50 [1]: 4.91 µM
IC50 [2]: 17.9 µM
IC50 [3]: 57.5 µM
IC50 [7]: 26.8 µM
IC50 [8]: 0.273 µM
IC50 [9]: 0.561 µM
IC50 [5]: > 2 µM
IC50 [10]: 1.72 µM
IC50 [6]: 5.68 µM
SMILES: O=C(CC[C@@H](NS(=O)(=O)c1ccc([N+](=O)[O-])cc1)C(=O)O)NCc1ccccc1
IC50 at 72 h [4]: 114 µM
Activity [11]: 49%
Activity [12]: 33.6%
Activity [13]: 17.4%
Activity [14]: 4.6%
Activity [15]: 26.7%
Activity [16]: Active
Activity [17]: Active
Activity [18]: Active
Activity [19]: Active
Activity [20]: 19.6%

IC50 [1]: 8.37 µM
IC50 [2]: 33.1 µM
IC50 [3]: 27.6 µM
IC50 [6]: 14.4 µM
SMILES: CCCCCNC(=O)CC[C@@H](NS(=O)(=O)c1ccc(C)cc1)C(=O)O
IC50 at 72 h [4]: 408 µM

IC50 [1]: 3.75 µM
IC50 [2]: 16.8 µM
IC50 [3]: 25.9 µM
IC50 [6]: 19.5 µM
SMILES: CCCCNC(=O)CC[C@@H](NS(=O)(=O)c1ccc(C)cc1)C(=O)O
IC50 at 72 h [4]: 391 µM

IC50 [2]: 29 µM
IC50 [3]: 37.6 µM
IC50 [21]: 5.26 µM
IC50 [8]: 0.456 µM
IC50 [9]: 0.833 µM
IC50 [5]: > 2 µM
IC50 [6]: 18.4 µM
SMILES: CCCCNC(=O)CC[C@@H](NS(=O)(=O)c1ccc([N+](=O)[O-])cc1)C(=O)O
IC50 at 72 h [4]: 368 µM

IC50 [1]: 2.37 µM
IC50 [2]: 28.9 µM
IC50 [3]: 25.2 µM
IC50 [6]: 5.14 µM
SMILES: CNC(=O)CC[C@@H](NS(=O)(=O)c1ccc(C)cc1)C(=O)O
IC50 at 72 h [4]: 203 µM

IC50 [1]: 9.73 µM
IC50 [2]: 26.4 µM
IC50 [3]: 20.5 µM
IC50 [6]: 8.99 µM
SMILES: NC(=O)CC[C@@H](NS(=O)(=O)c1ccc([N+](=O)[O-])cc1)C(=O)O
IC50 at 72 h [4]: 173 µM

IC50 [1]: 4.24 µM
IC50 [2]: 20.3 µM
IC50 [3]: 19.5 µM
IC50 [6]: 17.3 µM
SMILES: Cc1ccc(S(=O)(=O)N[C@H](CCC(=O)NC(C)C)C(=O)O)cc1
IC50 at 72 h [4]: 347 µM

IC50 [2]: 14.2 µM
IC50 [3]: 20.7 µM
IC50 [21]: 6.79 µM
IC50 [6]: 12.7 µM
SMILES: CCCCCNC(=O)CC[C@@H](NS(=O)(=O)c1ccc([N+](=O)[O-])cc1)C(=O)O
IC50 at 72 h [4]: 254 µM

IC50 [1]: 2.27 µM
IC50 [2]: 19.9 µM
IC50 [3]: 18.3 µM
IC50 [6]: 8.98 µM
SMILES: Cc1ccc(S(=O)(=O)N[C@H](CCC(N)=O)C(=O)O)cc1
IC50 at 72 h [4]: 279 µM

IC50 [1]: 7.76 µM
IC50 [2]: 16.2 µM
IC50 [3]: 32.9 µM
IC50 [6]: 12.2 µM
SMILES: CCNC(=O)CC[C@@H](NS(=O)(=O)c1ccc([N+](=O)[O-])cc1)C(=O)O
IC50 at 72 h [4]: 145 µM

IC50 [1]: 1.99 µM
IC50 [2]: 17.5 µM
IC50 [3]: 19.7 µM
IC50 [7]: 17.2 µM
IC50 [5]: > 2 µM
IC50 [10]: 1.24 µM
IC50 [6]: 3.57 µM
SMILES: Cc1ccc(S(=O)(=O)N[C@H](CCC(=O)NCc2ccccc2)C(=O)O)cc1
IC50 at 72 h [4]: 293 µM
Activity [22]: 56.4%
Activity [23]: 29.1%
Activity [24]: 14.7%
Activity [25]: 12%
Activity [26]: 39.7%
Activity [27]: Tde
Activity [28]: Active
Activity [29]: Active
Activity [30]: Active
Activity [31]: Active
Activity [32]: Active
Activity [33]: inactive
Activity [34]: inactive
Activity [35]: Active
Activity [36]: Active
Activity [37]: Active
Activity [38]: Active
Activity [39]: 20.1%

IC50 [1]: 5.69 µM
IC50 [2]: 20.5 µM
IC50 [3]: 24.4 µM
IC50 [6]: 20.8 µM
SMILES: CNC(=O)CC[C@@H](NS(=O)(=O)c1ccc([N+](=O)[O-])cc1)C(=O)O
IC50 at 72 h [4]: 417 µM

IC50 [1]: 11 µM
IC50 [2]: 37.5 µM
IC50 [3]: 43.5 µM
IC50 [6]: 10.6 µM
SMILES: CC(C)NC(=O)CC[C@@H](NS(=O)(=O)c1ccc([N+](=O)[O-])cc1)C(=O)O
IC50 at 72 h [4]: 271 µM

IC50 [1]: 2.54 µM
IC50 [2]: 32.3 µM
IC50 [3]: 16.5 µM
IC50 [6]: 4.82 µM
SMILES: CCNC(=O)CC[C@@H](NS(=O)(=O)c1ccc(C)cc1)C(=O)O
IC50 at 72 h [4]: 491 µM
